Data on three compounds can be found in ChEMBL document CHEMBL4325862, “Identification of novel quinazoline derivatives as potent antiplasmodial agents” (Eur J Med Chem, 2019).

Calls of active or inactive are those of the source. The rule behind the calls is not given here.

Series [1] concerns Plasmodium berghei. Nature of the series: Antimalarial activity against Plasmodium berghei ANKA infected in BALB/c mouse assessed as reduction in parasitemia at 20 mg/kg, po administered twice daily for 4 days measured day 6 to 11 post infection by Giemsa-staining based microscopic analysis. The class given is functional, organism-based.
Series [2] in a line: Plasma concentration in Crl:NRMI mouse at 10 mg/kg, po administered via gavage measured after 60 mins by LC-MS/MS analysis. The class given is ADME, organism-based.
Series [3] deals with Plasmodium falciparum. In words: Antiplasmodial activity against asynchronous form of Plasmodium falciparum 3D7 infected in human erythrocytes assessed as parasite growth inhibition at 10 uM after 48 hrs by SYBR green1 staining based flow cytometry relative to control. The class given is functional. The note with it: 3D7, 48 h.
Series [4] can be described thus: Cytotoxicity against mouse spleen cells. The class given is cell-based.
Series [5] is described as follows: Plasma concentration in Crl:NRMI mouse at 10 mg/kg, iv measured after 15 mins by LC-MS/MS analysis. The series is classed as ADME, organism-based.
For series [6], the system named is Plasmodium falciparum. In words: Antiplasmodial activity against asynchronous form of Plasmodium falciparum 3D7 infected in human erythrocytes assessed as parasite growth inhibition after 48 hrs by SYBR green1 staining based flow cytometry. The series is classed as functional, organism-based. The note with it: 3D7, 48 h.
The subject of series [7] is Plasmodium berghei. Nature of the series: Antimalarial activity against Plasmodium berghei ANKA infected in BALB/c mouse assessed as reduction in parasitemia at 20 mg/kg, po administered twice daily for 5 days by Giemsa-staining based microscopic analysis. The class given is functional, organism-based.
The nature of series [8]: Plasma concentration in Crl:NRMI mouse at 10 mg/kg, po administered via gavage measured after 180 mins by LC-MS/MS analysis. The class given is ADME, organism-based.
The target of series [9] is T1, Histone-lysine N-methyltransferase EHMT2 (Homo sapiens, UniProt Q96KQ7).
T1 sequence (Q96KQ7 whole entry): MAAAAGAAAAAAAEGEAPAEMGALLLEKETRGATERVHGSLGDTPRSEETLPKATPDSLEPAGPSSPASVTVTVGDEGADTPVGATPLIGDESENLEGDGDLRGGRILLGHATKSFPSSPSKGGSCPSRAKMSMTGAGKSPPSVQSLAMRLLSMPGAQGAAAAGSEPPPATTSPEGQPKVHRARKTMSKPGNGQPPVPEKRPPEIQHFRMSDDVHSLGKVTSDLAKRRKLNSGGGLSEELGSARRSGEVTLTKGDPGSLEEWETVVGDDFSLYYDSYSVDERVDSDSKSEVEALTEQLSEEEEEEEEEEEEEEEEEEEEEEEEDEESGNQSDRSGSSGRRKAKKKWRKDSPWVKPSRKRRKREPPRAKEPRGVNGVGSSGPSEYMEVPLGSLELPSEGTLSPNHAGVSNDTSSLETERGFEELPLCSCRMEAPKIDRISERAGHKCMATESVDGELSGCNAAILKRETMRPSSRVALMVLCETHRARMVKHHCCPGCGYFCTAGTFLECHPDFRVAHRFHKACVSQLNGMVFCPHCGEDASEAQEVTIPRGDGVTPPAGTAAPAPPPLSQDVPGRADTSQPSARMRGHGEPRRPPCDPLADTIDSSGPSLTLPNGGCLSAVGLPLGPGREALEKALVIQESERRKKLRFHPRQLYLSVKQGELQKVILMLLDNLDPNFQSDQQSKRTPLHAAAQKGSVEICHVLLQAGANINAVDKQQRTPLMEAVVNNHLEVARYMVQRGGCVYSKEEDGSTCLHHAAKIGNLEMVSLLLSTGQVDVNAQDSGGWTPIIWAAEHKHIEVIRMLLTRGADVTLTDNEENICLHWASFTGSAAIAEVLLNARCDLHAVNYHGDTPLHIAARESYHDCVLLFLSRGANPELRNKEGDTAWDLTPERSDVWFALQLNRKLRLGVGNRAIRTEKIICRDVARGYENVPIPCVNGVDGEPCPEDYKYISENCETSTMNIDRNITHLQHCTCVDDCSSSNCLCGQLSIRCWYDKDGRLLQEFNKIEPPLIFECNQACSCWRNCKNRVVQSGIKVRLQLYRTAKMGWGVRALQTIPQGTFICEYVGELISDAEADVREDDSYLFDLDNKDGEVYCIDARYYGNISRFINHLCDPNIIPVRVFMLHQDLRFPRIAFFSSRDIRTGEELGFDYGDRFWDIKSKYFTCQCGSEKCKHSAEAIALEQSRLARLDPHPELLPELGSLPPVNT
In words: Inhibition of recombinant human N-terminal GST-fused G9a (786 to 1210 residues) expressed in Escherichia coli using biotinylated H3 (1 to 21 residues) as substrate measured after 1 hr in presence of 3H-Adomet by filter binding assay.

The test system of series [10] is Plasmodium falciparum. Nature of the series: Antiplasmodial activity against Plasmodium falciparum Dd2 infected in human erythrocytes assessed as reduction in [3H]-hypoxanthine incorporation measured after 48 hrs by microbeta liquid scintillation counting method. The series is classed as functional, organism-based.
The test system of series [11] is Plasmodium berghei. In words: Antimalarial activity against Plasmodium berghei ANKA infected in BALB/c mouse assessed as reduction in parasitemia at 20 mg/kg, po administered twice daily for 4 days by Giemsa-staining based microscopic analysis. The class given is functional, organism-based.
Series [12] can be described thus: Solubility of the compound in DPBS at >1 ug/ml. The series is classed as physicochemical.
Series [13] relates to Plasmodium falciparum. Nature of the series: Antiplasmodial activity against asynchronous form of Plasmodium falciparum W2 infected in human erythrocytes assessed as parasite growth inhibition after 48 hrs by SYBR green1 staining based flow cytometry. The series is classed as functional, organism-based. The note with it: W2, 48 h.
Series [14] in a line: Plasma concentration in Crl:NRMI mouse at 10 mg/kg, iv measured after 180 mins by LC-MS/MS analysis. The series is classed as ADME, organism-based.
Series [15] in a line: Selectivity index, ratio of IC50 for mouse spleen cells to IC50 for asynchronous form of Plasmodium falciparum 3D7 infected in human erythrocytes. The class given is toxicity, cell-based. To be noted: read-out: Ratio IC50.
Series [16] addresses DNA (cytosine-5)-methyltransferase 1 (Homo sapiens, UniProt P26358). In words: Inhibition of recombinant human DNMT1 using biotinylated DNA duplex as substrate measured after 2 hrs in presence of Adomet/[methyl-3H]Adomet by topcount method.
Series [17] has as its system HFF. In words: Cytotoxicity against HFF. The series is classed as cell-based. To be noted: Homo sapiens.
Series [18] deals with DNA (cytosine-5)-methyltransferase 3A (Homo sapiens, UniProt Q9Y6K1). Nature of the series: Inhibition of recombinant human DNMT3a C-terminal catalytic domain (623 to 908 residues) using 5'-biotinylated/3'-FAM-oligonucleotide as substrate measured after 1 hr in presence of Adomet by fluorescence assay.
Chain of DNA (cytosine-5)-methyltransferase 3A (Q9Y6K1 whole entry, looked up, the tested form may be a part): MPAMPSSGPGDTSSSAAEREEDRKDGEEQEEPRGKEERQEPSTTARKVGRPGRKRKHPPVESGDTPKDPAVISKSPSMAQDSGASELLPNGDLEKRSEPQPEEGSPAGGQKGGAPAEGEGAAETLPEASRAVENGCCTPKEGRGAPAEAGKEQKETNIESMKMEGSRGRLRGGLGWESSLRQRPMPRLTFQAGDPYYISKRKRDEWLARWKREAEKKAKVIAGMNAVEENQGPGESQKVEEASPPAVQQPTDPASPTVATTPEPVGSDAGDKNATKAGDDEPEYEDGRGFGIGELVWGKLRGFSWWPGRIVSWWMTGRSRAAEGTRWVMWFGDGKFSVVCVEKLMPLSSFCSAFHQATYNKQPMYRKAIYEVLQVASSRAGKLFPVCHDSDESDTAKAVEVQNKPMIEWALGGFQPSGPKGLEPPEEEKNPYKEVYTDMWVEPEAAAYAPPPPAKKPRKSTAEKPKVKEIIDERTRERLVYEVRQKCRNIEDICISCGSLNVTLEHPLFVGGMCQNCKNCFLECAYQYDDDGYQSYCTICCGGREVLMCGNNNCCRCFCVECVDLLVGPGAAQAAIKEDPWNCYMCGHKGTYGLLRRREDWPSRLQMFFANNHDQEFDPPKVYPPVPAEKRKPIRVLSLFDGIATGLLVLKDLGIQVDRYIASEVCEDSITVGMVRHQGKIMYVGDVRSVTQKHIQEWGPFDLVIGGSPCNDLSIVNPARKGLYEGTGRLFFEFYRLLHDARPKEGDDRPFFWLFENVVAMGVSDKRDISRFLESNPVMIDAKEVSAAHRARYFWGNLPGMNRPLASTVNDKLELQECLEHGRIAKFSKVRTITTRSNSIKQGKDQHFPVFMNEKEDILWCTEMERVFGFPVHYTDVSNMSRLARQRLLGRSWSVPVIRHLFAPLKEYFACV
Series [19] is described as follows: Plasma concentration in Crl:NRMI mouse at 10 mg/kg, po administered via gavage measured after 30 mins by LC-MS/MS analysis. The series is classed as ADME, organism-based.
Series [20] is described as follows: Stability in phosphate buffered saline at pH 7.4 assessed as parent compound remaining after 24 hrs by UV/RP-HPLC analysis. The series is classed as physicochemical. To be noted: read-out: Stability.
Series [21] in a line: Plasma concentration in Crl:NRMI mouse at 10 mg/kg, iv measured after 60 mins by LC-MS/MS analysis. The series is classed as ADME, organism-based.
In series [22] the test system is Plasmodium berghei. Nature of the series: Antimalarial activity against Plasmodium berghei ANKA infected in BALB/c mouse assessed as reduction in parasitemia at 10 mg/kg, po administered twice daily for 4 days by Giemsa-staining based microscopic analysis. The series is classed as functional, organism-based.
Series [23] can be described thus: Plasma concentration in Crl:NRMI mouse at 50 mg/kg, po administered via gavage measured after 30 mins by LC-MS/MS analysis. The series is classed as ADME, organism-based.
Series [24] can be described thus: Plasma concentration in Crl:NRMI mouse at 50 mg/kg, po administered via gavage measured after 180 mins by LC-MS/MS analysis. The series is classed as ADME, organism-based.
The nature of series [25]: Stability in phosphate buffered saline at pH 7.4 after 24 hrs by UV/RP-HPLC analysis. The class given is physicochemical. To be noted: buffer, pH 7.4, 24 h.
Series [26] is described as follows: Toxicity in BALB/c mouse infected with Plasmodium berghei ANKA assessed as death at 25 mg/kg, po administered twice daily for 4 days. The series is classed as organism-based. The note with it: in vivo, 96 h.
Series [27] in a line: Plasma concentration in Crl:NRMI mouse at 50 mg/kg, po administered via gavage measured after 60 mins by LC-MS/MS analysis. The class given is ADME, organism-based.
For series [28], the system named is Plasmodium berghei. Nature of the series: Antimalarial activity against Plasmodium berghei ANKA infected in BALB/c mouse assessed as parasitemia at 25 mg/kg, po administered twice daily for 4 days measured up to 14 days post infection by Giemsa-staining based microscopic analysis (reference value: 4%). The series is classed as functional.
The nature of series [29]: Toxicity in BALB/c mouse infected with Plasmodium berghei ANKA assessed as death at 50 mg/kg, po administered twice daily for 4 days. The note with it: in vivo, 96 h. The class given is organism-based.
The subject of series [30] is Plasmodium berghei. In words: Antimalarial activity against Plasmodium berghei ANKA infected in BALB/c mouse assessed as reduction in parasitemia at 25 mg/kg, po administered twice daily for 4 days by Giemsa-staining based microscopic analysis. The class given is functional, organism-based.
The nature of series [31]: Acute toxicity in Crl:NRMI mouse assessed as death at 50 mg/kg, iv measured after 15 to 180 mins by LC-MS/MS analysis. The series is classed as organism-based. To be noted: in vivo.
Series [32] has as its system Plasmodium berghei. In words: Antimalarial activity against Plasmodium berghei ANKA infected in BALB/c mouse assessed as parasitemia at 50 mg/kg, po administered twice daily for 4 days measured up to 14 days post infection by Giemsa-staining based microscopic analysis (reference value: 31 to 58%). The class given is functional.
Series [33] relates to Plasmodium berghei. Nature of the series: Antimalarial activity against Plasmodium berghei ANKA infected in BALB/c mouse assessed as reduction in parasitemia at 50 mg/kg, po administered twice daily for 4 days by Giemsa-staining based microscopic analysis. The series is classed as functional, organism-based.

Chain of DNA (cytosine-5)-methyltransferase 1 (P26358 whole entry): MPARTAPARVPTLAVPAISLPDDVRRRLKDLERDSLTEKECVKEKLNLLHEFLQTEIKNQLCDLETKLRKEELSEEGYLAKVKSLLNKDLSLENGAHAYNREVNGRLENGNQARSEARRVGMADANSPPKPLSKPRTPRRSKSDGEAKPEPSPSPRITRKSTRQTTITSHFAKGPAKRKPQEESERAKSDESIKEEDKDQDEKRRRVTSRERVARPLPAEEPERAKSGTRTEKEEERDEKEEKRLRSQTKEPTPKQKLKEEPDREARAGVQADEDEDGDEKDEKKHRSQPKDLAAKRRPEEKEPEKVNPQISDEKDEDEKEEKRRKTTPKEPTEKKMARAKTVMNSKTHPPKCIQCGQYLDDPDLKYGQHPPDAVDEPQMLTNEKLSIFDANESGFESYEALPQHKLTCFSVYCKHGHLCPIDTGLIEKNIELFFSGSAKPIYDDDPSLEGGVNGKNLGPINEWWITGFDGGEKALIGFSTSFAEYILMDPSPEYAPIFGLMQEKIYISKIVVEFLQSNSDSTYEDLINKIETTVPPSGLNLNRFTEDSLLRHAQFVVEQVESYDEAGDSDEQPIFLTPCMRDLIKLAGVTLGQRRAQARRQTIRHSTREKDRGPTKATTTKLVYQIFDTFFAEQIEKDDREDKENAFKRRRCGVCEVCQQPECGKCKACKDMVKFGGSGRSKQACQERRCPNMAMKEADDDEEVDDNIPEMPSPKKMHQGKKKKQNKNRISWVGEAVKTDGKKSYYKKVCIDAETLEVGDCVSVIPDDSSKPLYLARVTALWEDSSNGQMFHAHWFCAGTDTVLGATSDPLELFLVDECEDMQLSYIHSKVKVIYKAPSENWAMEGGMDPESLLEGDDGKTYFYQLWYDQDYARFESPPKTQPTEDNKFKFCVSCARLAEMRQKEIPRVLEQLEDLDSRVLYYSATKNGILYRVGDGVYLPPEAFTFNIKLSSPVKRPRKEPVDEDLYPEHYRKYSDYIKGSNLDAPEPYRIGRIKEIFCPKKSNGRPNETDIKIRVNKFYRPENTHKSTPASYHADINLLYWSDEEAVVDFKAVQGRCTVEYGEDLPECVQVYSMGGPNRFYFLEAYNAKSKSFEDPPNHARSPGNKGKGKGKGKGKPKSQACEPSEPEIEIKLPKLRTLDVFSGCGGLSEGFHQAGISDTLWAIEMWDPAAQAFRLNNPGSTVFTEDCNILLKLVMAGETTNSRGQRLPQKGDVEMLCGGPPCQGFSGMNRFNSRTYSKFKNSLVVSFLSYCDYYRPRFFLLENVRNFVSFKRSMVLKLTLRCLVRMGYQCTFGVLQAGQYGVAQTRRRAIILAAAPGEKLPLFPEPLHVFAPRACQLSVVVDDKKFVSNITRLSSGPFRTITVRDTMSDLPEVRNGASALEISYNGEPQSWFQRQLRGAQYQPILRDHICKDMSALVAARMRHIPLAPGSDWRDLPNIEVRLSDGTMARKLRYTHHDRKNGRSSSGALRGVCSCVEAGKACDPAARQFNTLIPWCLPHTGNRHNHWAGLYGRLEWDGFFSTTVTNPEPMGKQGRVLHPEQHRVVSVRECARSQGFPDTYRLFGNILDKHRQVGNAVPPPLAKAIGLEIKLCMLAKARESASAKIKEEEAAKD

In the case of `COc1cc2nc(NCc3ccc(F)cc3)nc(NC3CCN(C(=O)OC(C)(C)C)CC3)c2cc1OC`, the outcome in series [1] was inactive. The concentration at 1 h fell in the range of 100 to 280 nM in series [2] and 930 to 1110 nM in [21]. In series [3], the inhibition at 10 µM is 100%. Besides, the IC50 in series [4] was greater than 10000 nM; in series [6], 18.7 to 18.9 nM; in [10] it was 18.5 nM; in series [13] it was 43.6 nM; in series [17], 7170 nM. Also, the concentration at 0.25 h in series [5] is 3410 to 5110 nM. Moreover, the result in [7] and in [11] was Active. The concentration at 3 h in series [8] is 30 nM; in series [14], 220 to 460 nM. Besides, the EC50 in [9] is 137000 nM; in series [16], greater than 100000 nM; in [18], 8700 nM. In addition, the solubility result in series [12] is listed as “Insoluble”. Besides, the selectivity ratio in [15] was greater than 500. Besides, in series [19], the concentration at 0.5 h is 120 to 130 nM. In [20], the remaining at 24 h amounted to 60%.

Regarding `COc1cc2c(NC3CCN(Cc4ccccc4)CC3)nc(N3CCN(c4ccccc4)CC3)nc2cc1OCc1ccccc1`, in series [3], the inhibition at 10 µM was 100%. For the same compound, the result in series [22] and in series [30] was Active. The IC50 in series [4] was greater than 10000 nM; in series [6] it was 34 nM; in [10], 81.3 nM; in series [13], 39.9 nM; in [17], 5630 nM. The compound further displayed a concentration at 0.5 h in [23] of 380 to 940 nM. Further, the values for the concentration giving a half-maximal response (EC50) in series [9], in series [16] and in [18] were greater than 100000 nM, greater than 100000 nM and 1600 nM, respectively. Also, the concentration at 3 h in [24] was in the range of 280 to 390 nM. Moreover, the selectivity ratio in series [15] is greater than 295. Moreover, the Stability result in [25] is recorded as “Stable”. Further, the Activity entry in series [26] was “Non-Toxic”; in series [28], 2%; in series [29] it was “Toxic”; in [31], “Toxic”. This compound also registered a concentration at 1 h in series [27] of 480 to 700 nM.

For the compound `COc1cc2c(NC3CCN(Cc4ccccc4)CC3)nc(N3CCN(c4ccccc4)CC3)nc2cc1O`, in series [3], the inhibition at 10 µM is 100%. For the same compound, the IC50 came to 2580 nM in [4]; 10.1 nM in series [6]; 42.6 nM in series [10]; 18.6 nM in [13]; 7210 nM in [17]. The concentration at 0.5 h in series [23] lay within 3430 to 4570 nM. Besides, the EC50 in [9] is greater than 100000 nM; in series [16], greater than 100000 nM; in [18] it was 6200 nM. The Activity in series [32] is on record as less than 10%; in series [31] it was “Toxic”. For the same compound, the concentration at 3 h in series [24] fell in the range of 290 to 670 nM. Moreover, in series [15], the selectivity ratio amounted to 255. Further, the Stability entry in [25] is “Stable”. The same compound showed a concentration at 1 h in [27] of 1040 to 3520 nM. In addition, the result in [33] was Active.

The term inhibition denotes the share of the control response that was lost under treatment. The term IC50 denotes the concentration that inhibits the measured activity by half. For orientation: EC50 means the midpoint of the concentration-response curve.
